Tested on: bacterial isolates
Assay: microbe, parasite or virus in culture
Assay type: cell-based
Conditions: for MBI 26 + Teicoplanin: in combination with Teicoplanin

## KWKSFIKKLTSAAKKVVTTAKPLISS [MBI 26]
3. Ciprofloxacin, S. maltophilia 35
  Peptide MIC Alone: >32 µg/mL
4. Gentamicin, A. baumannii ABI001
  Peptide MIC Alone: 8 µg/mL
4. Gentamicin, A. baumannii ABI002
  Peptide MIC Alone: 8 µg/mL
4. Gentamicin, P. aeruginosa PA041
  Peptide MIC Alone: 64 µg/mL
4. Gentamicin, S. maltophilia SMA016
  Peptide MIC Alone: >128 µg/mL
4. Gentamicin, S. maltophilia SMA017
  Peptide MIC Alone: 16 µg/mL
A. baumannii ABI001
  Amikacin MIC + Peptide: 8 µg/mL
  Gentamicin MIC + Peptide: 16 µg/mL
  Peptide MIC + Amikacin: 2 µg/mL
  Peptide MIC + Gentamicin: 2 µg/mL
A. baumannii ABI002
  Ceftriaxone MIC + Peptide: 16 µg/mL
  Gentamicin MIC + Peptide: 0.5 µg/mL
  Peptide MIC + Ceftriaxone: 2 µg/mL
  Peptide MIC + Gentamicin: 4 µg/mL
A. baumannii ABI003
  Amikacin MIC + Peptide: 2 µg/mL
  Peptide MIC + Amikacin: 2 µg/mL
A. baumannii ABI005
  Ceftriaxone MIC + Peptide: 8 µg/mL
  Peptide MIC + Ceftriaxone: 0.125 µg/mL
A. calcoaceticus 1
  Ciprofloxacin MIC + Peptide: 0.25 µg/mL
  Peptide MIC + Ciprofloxacin: 1 µg/mL
A. calcoaceticus 6
  Ciprofloxacin MIC + Peptide: 0.25 µg/mL
  Peptide MIC + Ciprofloxacin: 16 µg/mL
A. calcoaceticus 7
  Peptide MIC + Piperacillin: 8 µg/mL
  Piperacillin MIC + Peptide: 4 µg/mL
A. calcoaceticus 7, Piperacillin section
  Peptide MIC Alone: >32 µg/mL
A. calcoaceticus 8
  Peptide MIC + Piperacillin: 8 µg/mL
  Piperacillin MIC + Peptide: 4 µg/mL
A. calcoaceticus 8, Piperacillin section
  Peptide MIC Alone: >32 µg/mL
B. cepacia BC003
  Ceftriaxone MIC + Peptide: 8 µg/mL
  Peptide MIC + Ceftriaxone: 0.125 µg/mL
E. cloacae 13
  Ciprofloxacin MIC + Peptide: 0.25 µg/mL
  Peptide MIC + Ciprofloxacin: 4 µg/mL
  Peptide MIC + Piperacillin: 8 µg/mL
  Piperacillin MIC + Peptide: 4 µg/mL
E. cloacae 13, Piperacillin section
  Peptide MIC Alone: >32 µg/mL
E. cloacae 15
  Ciprofloxacin MIC + Peptide: 0.25 µg/mL
  Peptide MIC + Ciprofloxacin: 8 µg/mL
E. cloacae 16
  Ciprofloxacin MIC + Peptide: 0.25 µg/mL
  Peptide MIC + Ciprofloxacin: 16 µg/mL
E. cloacae ECL014
  Ceftriaxone MIC + Peptide: 32 µg/mL
  Peptide MIC + Ceftriaxone: 2 µg/mL
E. cloacae ECL015
  Ceftriaxone MIC + Peptide: 4 µg/mL
  Peptide MIC + Ceftriaxone: 4 µg/mL
E. coli ECO5
  Mupirocin MIC + Peptide: 30 µg/mL
  Peptide MIC + Mupirocin: 1 µg/mL
E. coli ECO5, Mupirocin section
  Peptide MIC Alone: 8 µg/mL
E. coli SBECO2
  Mupirocin MIC + Peptide: 30 µg/mL
  Peptide MIC + Mupirocin: 1 µg/mL
E. coli SBECO2, Mupirocin section
  Peptide MIC Alone: 8 µg/mL
E. faecalis 97040 VanB
  MBI 26 Alone: 64 µg/mL
  MBI 26 + Teicoplanin: 8 µg/mL
E. faecalis 97041 VanB
  MBI 26 Alone: 64 µg/mL
  MBI 26 + Teicoplanin: 8 µg/mL
E. faecalis 97042 VanB
  MBI 26 Alone: 64 µg/mL
  MBI 26 + Teicoplanin: 8 µg/mL
E. faecalis 97043 VanB
  MBI 26 Alone: 64 µg/mL
  MBI 26 + Teicoplanin: 8 µg/mL
E. faecalis EFS005
  Peptide MIC + Vancomycin: 16 µg/mL
  Peptide MIC Alone: >128 µg/mL
  Vancomycin MIC + Peptide: 4 µg/mL
E. faecalis EFS012
  Peptide MIC + Vancomycin: 1 µg/mL
  Peptide MIC Alone: 16 µg/mL
